Source: patent US20170107180A1, “GLYCOSIDASE INHIBITORS AND USES THEREOF” (Alectos Therapeutics Inc., priority 2012, published 2017)
Structures can show the parent of a compound that is named as a salt.

Tested on: not listed separately
Test: Determination of apparent permeability (Papp), bi-directional transport in LLC-PK1 cells
Assay type: in vitro ADME
Settings: pig, test compound 1 μM, t=3 h, average of A to B and B to A
Procedure: Bi-directional transport is evaluated in LLC-PK1 cells in order to determine apparent permeability (Papp). LLC-PK1 cells can form a tight monolayer and therefore can be used to assess vectorial transport of compounds from basolateral to apical (B→A) and from apical to basolateral (A→B).
To determine Papp, LLC-PK1 cells are cultured in 96-well transwell culture plates (Millipore). Solutions containing the test compounds (1 μM) are prepared in Hank's Balanced Salt Solution with 10 mM HEPES. Substrate solution (150 μL) is added to either the apical (A) or the basolateral (B) compartment of the culture plate, and buffer (150 μL) is added to the compartment opposite to that containing the compound. At t=3 h, 50 μL samples are removed from both sides of monolayers dosed with test compound and placed in 96 well plates, scintillant (200 μL) or internal standard (100 μL labetolol 1 μM) is added to the samples and concentration is determined by liquid scintillation counting in a MicroBeta Wallac Trilux scintillation counter (Perkin Elmer Life Sciences, Boston, Mass.) or by LCMS/MS (Applied Biosystems SCIEX API 5000 triple quadruple mass spectrometer). [^3H]Verapamil (1 μM) is used as the positive control. The experiment is performed in triplicate.
The apparent permeability, Papp, is calculated by the following formula for samples taken at t=3 h: […]

| Structure (SMILES) | Papp at 3 h, 1 μM [nm/s] |
| --- | --- |
| CNC(=O)[C@@H]1[C@@H](O)[C@@H](O)[C@H](O)[C@@H](CO)N1CCCc1ccc(-c2ccccc2)cc1 [Example 3, (2S,3R,4S,5R,6R)-1-(3-([1,1′-biphenyl]-4-yl)propyl)-3,4,5-trihydroxy-6-(hydroxymethyl)-N-methylpiperidine-2-carboxamide] | 30 |

Biological target: T1, human O-GlcNAcase (Homo sapiens, UniProt O60502)
T1 sequence (O60502 1-916): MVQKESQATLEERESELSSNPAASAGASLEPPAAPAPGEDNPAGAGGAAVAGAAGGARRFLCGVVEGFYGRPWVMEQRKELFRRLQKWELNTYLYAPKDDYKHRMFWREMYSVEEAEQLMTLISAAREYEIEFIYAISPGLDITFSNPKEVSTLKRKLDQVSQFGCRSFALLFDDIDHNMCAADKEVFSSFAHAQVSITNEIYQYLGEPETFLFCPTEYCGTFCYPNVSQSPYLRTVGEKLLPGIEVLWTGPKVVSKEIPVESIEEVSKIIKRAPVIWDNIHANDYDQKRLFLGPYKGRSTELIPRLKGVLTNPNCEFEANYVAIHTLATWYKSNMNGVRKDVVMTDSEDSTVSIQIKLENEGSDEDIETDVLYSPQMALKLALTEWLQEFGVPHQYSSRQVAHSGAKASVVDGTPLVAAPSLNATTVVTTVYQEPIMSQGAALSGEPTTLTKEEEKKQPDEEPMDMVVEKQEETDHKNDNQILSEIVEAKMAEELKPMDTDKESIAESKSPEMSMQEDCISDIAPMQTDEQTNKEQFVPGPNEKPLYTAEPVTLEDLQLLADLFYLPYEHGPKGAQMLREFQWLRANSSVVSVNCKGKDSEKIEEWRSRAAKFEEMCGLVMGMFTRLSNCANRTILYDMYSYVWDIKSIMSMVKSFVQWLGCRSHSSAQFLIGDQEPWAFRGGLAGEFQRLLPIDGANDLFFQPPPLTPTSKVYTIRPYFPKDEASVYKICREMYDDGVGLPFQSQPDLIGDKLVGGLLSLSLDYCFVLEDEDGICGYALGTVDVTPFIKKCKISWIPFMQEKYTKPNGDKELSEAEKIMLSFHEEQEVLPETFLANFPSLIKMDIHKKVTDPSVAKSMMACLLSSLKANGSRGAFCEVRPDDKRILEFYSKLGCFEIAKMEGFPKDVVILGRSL
Test: Determination of KI values for inhibition of O-GlcNAcase activity (fluorescence-based hOGA Ki)
Assay type: biochemical
Settings: purified human O-GlcNAcase 0.7 nM, 2 mM 4-Methylumbelliferyl N-acetyl-β-D-glucosaminide, pH 7.0, Cheng-Prusoff
Procedure: Experimental procedure for kinetic analyses: Enzymatic reactions were carried out in a reaction containing 50 mM NaH2PO4, 100 mM NaCl and 0.1% BSA (pH 7.0) using 2 mM 4-Methylumbelliferyl N-acetyl-β-D-glucosaminide dihydrate (Sigma M2133) dissolved in ddH2O, as a substrate. The amount of purified human O-GlcNAcase enzyme used in the reaction was 0.7 nM. Test compound of varying concentrations was added to the enzyme prior to initiation of the reaction. The reaction was performed at room temperature in a 96-well plate and was initiated with the addition of substrate. The production of fluorescent product was measured every 60 sec for 45 min with a Tecan Infinite M200 plate-reader with excitation at 355 nm and emission detected at […], with 4-Methylumbelliferone (Sigma M1381) used to produce a standard curve. The slope of product production was determined for each concentration of compound tested and plotted, using standard curve fitting algorithms for sigmoidal dose response curves. The values for a four parameter logistic curve fit of the data were determined.
KI values were determined using the Cheng-Prusoff equation; the Km of O-GlcNAcase for substrate was 0.2 mM.

| Structure (SMILES) | Ki [µM] |
| --- | --- |
| CNC(=O)[C@H]1N[C@H](CO)[C@@H](O)[C@H](O)[C@@H]1O [(2S,3R,4S,5R,6R)-3,4,5-trihydroxy-6-(hydroxymethyl)-N-methylpiperidine-2-carboxamide (hydrochloride salt), reference compound] | 0.165 |
| CNC(=O)[C@@H]1[C@@H](O)[C@@H](O)[C@H](O)[C@@H](CO)N1C [Example 1, (2S,3R,4S,5R,6R)-3,4,5-trihydroxy-6-(hydroxymethyl)-N,1-dimethylpiperidine-2-carboxamide hydrochloride] | 1.47 |
| CNC(=O)[C@@H]1[C@@H](O)[C@@H](O)[C@H](O)[C@@H](CO)N1C/C=C/c1ccc(-c2ccccc2)cc1 [Example 2, (2S,3R,4S,5R,6R)-1-((E)-3-([1,1′-biphenyl]-4-yl)allyl)-3,4,5-trihydroxy-6-(hydroxymethyl)-N-methylpiperidine-2-carboxamide] | 1.81 |
| CNC(=O)[C@@H]1[C@@H](O)[C@@H](O)[C@H](O)[C@@H](CO)N1CCCc1ccc(-c2ccccc2)cc1 [Example 3, (2S,3R,4S,5R,6R)-1-(3-([1,1′-biphenyl]-4-yl)propyl)-3,4,5-trihydroxy-6-(hydroxymethyl)-N-methylpiperidine-2-carboxamide] | 0.0094 |
| CCNC(=O)[C@H]1N[C@H](CO)[C@@H](O)[C@H](O)[C@@H]1O [Example 4, (2S,3R,4S,5R,6R)-N-ethyl-3,4,5-trihydroxy-6-(hydroxymethyl)piperidine-2-carboxamide hydrochloride] | 3.3 |
| CNC(=O)[C@@H]1[C@@H](O)[C@@H](O)[C@H](O)[C@@H](CO)N1CCCc1ccccc1 [Example 5, (2S,3R,4S,5R,6R)-3,4,5-trihydroxy-6-(hydroxymethyl)-N-methyl-1-(3-phenylpropyl)piperidine-2-carboxamide] | 1.7 |
| CCNC(=O)[C@@H]1[C@@H](O)[C@@H](O)[C@H](O)[C@@H](CO)N1CCCc1ccccc1 [Example 6, (2S,3R,4S,5R,6R)-N-ethyl-3,4,5-trihydroxy-6-(hydroxymethyl)-1-(3-phenylpropyl)piperidine-2-carboxamide] | 2.5 |
| CNC(=O)[C@@H]1[C@@H](O)[C@@H](O)[C@H](O)[C@@H](CO)N1CCCCc1ccccc1 [Example 7, (2S,3R,4S,5R,6R)-3,4,5-trihydroxy-6-(hydroxymethyl)-N-methyl-1-(4-phenylbutyl)piperidine-2-carboxamide] | 0.252 |
| CNC(=O)[C@@H]1[C@@H](O)[C@@H](O)[C@H](O)[C@@H](CO)N1CCCCC(C)C [Example 8, (2S,3R,4S,5R,6R)-3,4,5-trihydroxy-6-(hydroxymethyl)-N-methyl-1-(5-methylhexyl)piperidine-2-carboxamide] | 0.62 |
